#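 Step 1: Grow cells in 96-well plates. Step 2: Expose to compound for 48 hours at 5 concentrations. Step 3: Interpolate endpoints linearly; if unreached, use highest concentration. GI50 marks 50% less growth.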 Active and inactive are the calls of the source. Cut-off read from the data, not from the text of the source: active = GI50 up to about 1.1 µM and inactive = higher.
# Tests used:
# Assay in all cases: NCI anticancer screen, dose series, 48 h
# SN12C = test system: SN12C
# SK-MEL-28 = test system: SK-MEL-28
# EKVX = test system: EKVX
# SF-539 = test system: SF-539
# HOP-92 = test system: HOP-92
# SNB-75 = test system: SNB-75
# LOX IMVI = test system: LOX IMVI
# UACC-257 = test system: UACC-257
# MDA-MB-435 = test system: MDA-MB-435
# NCI/ADR-RES = test system: NCI/ADR-RES
# ACHN = test system: ACHN
# MDA-N = test system: MDA-N
# OVCAR-8 = test system: OVCAR-8
# HCT-116 = test system: HCT-116
# NCI-H460 = test system: NCI-H460
# 786-0 = test system: 786-0
# HOP-62 = test system: HOP-62
# CAKI-1 = test system: CAKI-1
# A549 = test system: A549
# COLO 205 = test system: COLO 205
# CCRF-CEM = test system: CCRF-CEM
# UACC-62 = test system: UACC-62
# HT-29 = test system: HT-29
# OVCAR-4 = test system: OVCAR-4
# SK-OV-3 = test system: SK-OV-3
# HCT-15 = test system: HCT-15
# SF-268 = test system: SF-268
# NCI-H522 = test system: NCI-H522
# SK-MEL-5 = test system: SK-MEL-5
# PC-3 = test system: PC-3
# SW-620 = test system: SW-620
# Malme-3M = test system: Malme-3M
# MDA-MB-231 = test system: MDA-MB-231
# DU-145 = test system: DU-145
# UO-31 = test system: UO-31
# U-251 = test system: U-251
# IGROV-1 = test system: IGROV-1
# Hs-578T = test system: Hs-578T
# RXF 393 = test system: RXF 393
# MOLT-4 = test system: MOLT-4
# MCF7 = test system: MCF7
# A498 = test system: A498
# M14 = test system: M14
# BT-549 = test system: BT-549
# K562 = test system: K562
# SNB-19 = test system: SNB-19
# SR = test system: SR
# HL-60 = test system: HL-60
# OVCAR-3 = test system: OVCAR-3
# OVCAR-5 = test system: OVCAR-5
# HCC 2998 = test system: HCC 2998
# TK-10 = test system: TK-10
# KM12 = test system: KM12
# SF-295 = test system: SF-295
# NCI-H226 = test system: NCI-H226
# RPMI-8226 = test system: RPMI-8226
# T47D = test system: T47D
# NCI-H23 = test system: NCI-H23
compound,measurement,setting,value
Cc1nc(-n2[nH]c(C)c(CCO)c2=O)[nH]c(=O)c1CCO,GI50,SN12C,> 100 µM (inactive)
same,GI50,SK-MEL-28,> 100 µM (inactive)
same,GI50,EKVX,> 100 µM (inactive)
same,GI50,SF-539,> 100 µM (inactive)
same,GI50,HOP-92,> 100 µM (inactive)
same,GI50,SNB-75,> 100 µM (inactive)
same,GI50,LOX IMVI,> 100 µM (inactive)
same,GI50,UACC-257,> 100 µM (inactive)
same,GI50,MDA-MB-435,> 100 µM (inactive)
same,GI50,NCI/ADR-RES,> 100 µM (inactive)
same,GI50,ACHN,> 100 µM (inactive)
same,GI50,MDA-N,> 100 µM (inactive)
same,GI50,OVCAR-8,> 100 µM (inactive)
same,GI50,HCT-116,> 100 µM (inactive)
same,GI50,NCI-H460,> 100 µM (inactive)
same,GI50,786-0,> 100 µM (inactive)
same,GI50,HOP-62,> 100 µM (inactive)
same,GI50,CAKI-1,> 100 µM (inactive)
same,GI50,A549,> 100 µM (inactive)
same,GI50,COLO 205,> 100 µM (inactive)
same,GI50,CCRF-CEM,> 100 µM (inactive)
same,GI50,UACC-62,> 100 µM (inactive)
same,GI50,HT-29,> 100 µM (inactive)
same,GI50,OVCAR-4,> 100 µM (inactive)
same,GI50,SK-OV-3,> 100 µM (inactive)
same,GI50,HCT-15,> 100 µM
same,GI50,SF-268,> 100 µM (inactive)
same,GI50,NCI-H522,> 100 µM (inactive)
same,GI50,SK-MEL-5,> 100 µM (inactive)
same,GI50,PC-3,> 100 µM (inactive)
same,GI50,SW-620,> 100 µM (inactive)
same,GI50,Malme-3M,< 0.01 µM (active)
same,GI50,MDA-MB-231,> 100 µM (inactive)
same,GI50,DU-145,> 100 µM (inactive)
same,GI50,UO-31,> 100 µM (inactive)
same,GI50,U-251,> 100 µM (inactive)
same,GI50,IGROV-1,> 100 µM (inactive)
same,GI50,Hs-578T,> 100 µM (inactive)
same,GI50,RXF 393,> 100 µM (inactive)
same,GI50,MOLT-4,> 100 µM (inactive)
same,GI50,MCF7,> 100 µM (inactive)
same,GI50,A498,93.1 µM (inactive)
same,GI50,M14,> 100 µM (inactive)
same,GI50,BT-549,> 100 µM (inactive)
same,GI50,K562,> 100 µM (inactive)
same,GI50,SNB-19,> 100 µM (inactive)
same,GI50,SR,> 100 µM (inactive)
same,GI50,HL-60,> 100 µM (inactive)
same,GI50,OVCAR-3,> 100 µM (inactive)
same,GI50,OVCAR-5,> 10 µM (inactive)
same,GI50,HCC 2998,> 100 µM (inactive)
same,GI50,TK-10,> 100 µM (inactive)
same,GI50,KM12,> 100 µM (inactive)
same,GI50,SF-295,> 100 µM (inactive)
same,GI50,NCI-H226,> 100 µM (inactive)
same,GI50,RPMI-8226,> 100 µM (inactive)
same,GI50,T47D,> 100 µM (inactive)
same,GI50,NCI-H23,> 100 µM (inactive)

# Reference: ChEMBL document CHEMBL1201862, “PubChem BioAssay data set” (2004)
